Assay results taken from patent US6844353B2, “Fungicidal properties of sampangine and its analogs to agriculturally important fungal plant pathogens” (The United States of America as represented by the …, priority 2003, dated 2005).
Read-outs that look alike come from different tables or passages of the source.

Experiments:
Test in all cases: 96-well microtiter plate assay, fungal growth inhibition
B. cinerea = format: cell-based, Botrytis cinerea; conditions: for Percent inhibition−Percent Stimulation±SEM: B. cinerea; for inhibition at 0.3 µM / inhibition at 3 µM / inhibition at 30 µM: Botrytis cinerea, read-out: Percent inhibition−Percent Stimulation±SEM
Text: (§1) Pathogen production. Isolates of Colletotrichum acutatum Simmonds, Colletotrichum fragariae Brooks, and Colletotrichum gloeosporioides (Penz.) Penz. & Sacc. in Penz. were obtained from B. J. Smith, USDA, ARS, Small Fruit Research Station, Poplarville, Miss. Colletotrichum fragariae (isolate CF63), C. acutatum (isolate CAGoff), and C. gloeosporioides (isolate CG162) were used for all pathogen and bioautography studies. Isolate CF63 is one of the most virulent isolates at infecting strawberry plants and inducing both crown and fruit rot (Smith and Black, 1990). CF63, CAGoff, and CG162 were used as standard test isolates because of our extensive knowledge of these isolates and their known fungicide sensitivity profiles in both bioautography and microtiter formats. The three Colletotrichum species were isolated from strawberry (Fragaria x ananassa Duchesne). Botrytis cinerea Pers.: Fr, was isolated from commercial grape (Vitis vinifera L.) and Fusarium oxysporum Schlechtend: Fr from orchid (Cynoches sp.). Phomopsis viticola (Sacc.) and P. obscurans (Ellis & Everh.) Sutton were from Mike A. Ellis, Ohio State University, Wooster, Ohio. Fungi were grown on potato-dextrose agar (PDA, Difco, Detroit, Mich.) in 9 cm petri dishes and incubated in a growth chamber at 24±2° C. and under cool-white fluorescent lights ([…]·m^−2·sec^−1 light) with 12 hour photoperiod.
(§2) Inoculum preparation. Conidia were harvested from 7-10 day-old cultures by flooding plates with 5 mL of sterile distilled water and dislodging conidia by softly brushing the colonies with an L-shaped glass rod. Conidial suspensions were filtered through sterile miracloth (Calbiochem-Novabiochem Corp., La Jolla, Calif.) to remove mycelia. Conidia concentrations were determined photometrically, from a standard curve based on the percent of transmittance (% T) at 625 nm and suspensions were then adjusted with sterile distilled water to a concentration of 1.0×10^6 conidia/mL.
(§3) Microtiter assay. A standardized 96-well microtiter plate assay developed for discovery of natural product fungicidal agents was used to evaluate naturally occurring antifungal agents from Macaranga monanara. A 96-well microtiter assay was used to determine sensitivity of B. cinerea, C. acutatum, C. fragariae, C. gloeosporioides, F. oxysporum, Phomopsis viticola, and P. obscurans to the various antifungal agents in comparison with known fungicidal standards. Vinclozolin, captan, and thiabendazole, which represent three different modes of action, were used as standards in this experiment. Each fungus was challenged in a dose-response format using test compounds where the final treatment concentrations were 0.3, 3.0 and 30.0 μM. Microtiter plates (Nunc MicroWell, untreated; Roskilde, Denmark) were covered with a plastic lid and incubated in a growth chamber as described previously for fungal growth. Growth was then evaluated by measuring absorbance of each well at 620 nm using a microplate photometer (Packard Spectra Count, Packard Instrument Co., Downers Grove, Ill.). Microtiter plates (Nunc MicroWell, untreated; Roskilde, Denmark) were covered with a plastic lid and incubated in a growth chamber at 24±1° C. and 12 hour photoperiod under 60±5 μmol light. Growth was then evaluated by measuring absorbance of each well at 620 nm using a microplate photometer (Packard Spectra Count, Packard Instrument Co., Downers Grove, Ill.).
(§4) Microbioassy Experimental Design. Chemical sensitivity each of B. cinerea, C. acutatum, C. fragariae, C. gloeosporiodes, F. oxysporum, Phomopsis viticola, and P. obscurans was evaluated using 96-well plate microbioassay format. Each chemical was evaluated in duplicate at each dose (0.3, 3.0 and 30.0 μM). […]

C. fragariae = format: cell-based, Colletotrichum fragariae; conditions: for Percent inhibition−Percent Stimulation±SEM: C. fragariae; for inhibition at 0.3 µM / inhibition at 3 µM / inhibition at 30 µM: Colletotrichum fragariae, read-out: Percent inhibition−Percent Stimulation±SEM
Text: as §1, §2, §3, §4

C. acutatum = format: cell-based, Colletotrichum acutatum; conditions: for Percent inhibition−Percent Stimulation±SEM: C. acutatum; for inhibition at 0.3 µM / inhibition at 3 µM / inhibition at 30 µM: Colletotrichum acutatum, read-out: Percent inhibition−Percent Stimulation±SEM
Text: as §1, §2, §3, §4

F. oxysporum = format: cell-based, Fusarium oxysporum; conditions: for Percent inhibition−Percent Stimulation±SEM: F. oxysporum; for inhibition at 0.3 µM / inhibition at 3 µM / inhibition at 30 µM: Fusarium oxysporum, read-out: Percent inhibition−Percent Stimulation±SEM
Text: as §1, §2, §3, §4

C. gloeosporioides = format: cell-based, Colletotrichum gloeosporioides; conditions: for Percent inhibition−Percent Stimulation±SEM: C. gloeosporioides; for inhibition at 0.3 µM / inhibition at 3 µM / inhibition at 30 µM: Colletotrichum gloeosporioides, read-out: Percent inhibition−Percent Stimulation±SEM
Text: as §1, §2, §3, §4

Compound: O=C1c2ccccc2-c2nccc3c(Br)cnc1c23 [4-bromosampangine]
- Percent inhibition−Percent Stimulation±SEM (B. cinerea; 0.3 μM, 48 hrs): −41.1 ± 9.4%
- Percent inhibition−Percent Stimulation±SEM (B. cinerea; 0.3 μM, 72 hrs): −22.6 ± 13.7%
- Percent inhibition−Percent Stimulation±SEM (B. cinerea; 3.0 μM, 48 hrs): −59.2 ± 6.7%
- Percent inhibition−Percent Stimulation±SEM (B. cinerea; 3.0 μM, 72 hrs): −38.8 ± 9.4%
- Percent inhibition−Percent Stimulation±SEM (B. cinerea; 30 μM, 48 hrs): −29.7 ± 9.7%
- Percent inhibition−Percent Stimulation±SEM (B. cinerea; 30 μM, 72 hrs): 2.5 ± 8.9%
- Percent inhibition−Percent Stimulation±SEM (C. fragariae; 0.3 μM, 48 hrs): −46.3 ± 5.0%
- Percent inhibition−Percent Stimulation±SEM (C. fragariae; 0.3 μM, 72 hrs): −15.2 ± 8.2%
- Percent inhibition−Percent Stimulation±SEM (C. fragariae; 3.0 μM, 48 hrs): −87.3 ± 2.0%
- Percent inhibition−Percent Stimulation±SEM (C. fragariae; 3.0 μM, 72 hrs): −45.8 ± 5.6%
- Percent inhibition−Percent Stimulation±SEM (C. fragariae; 30 μM, 48 hrs): −55.9 ± 7.1%
- Percent inhibition−Percent Stimulation±SEM (C. fragariae; 30 μM, 72 hrs): −26.7 ± 7.3%
- Percent inhibition−Percent Stimulation±SEM (C. acutatum; 0.3 μM, 48 hrs): −23.3 ± 8.0%
- Percent inhibition−Percent Stimulation±SEM (C. acutatum; 0.3 μM, 72 hrs): −7.1 ± 6.3%
- Percent inhibition−Percent Stimulation±SEM (C. acutatum; 3.0 μM, 48 hrs): −73.4 ± 6.8%
- Percent inhibition−Percent Stimulation±SEM (C. acutatum; 3.0 μM, 72 hrs): −24.9 ± 8.7%
- Percent inhibition−Percent Stimulation±SEM (C. acutatum; 30 μM, 48 hrs): −33.4 ± 6.9%
- Percent inhibition−Percent Stimulation±SEM (C. acutatum; 30 μM, 72 hrs): −10.5 ± 6.7%
- Percent inhibition−Percent Stimulation±SEM (F. oxysporum; 0.3 μM, 48 hrs): −20.4 ± 4.6%
- Percent inhibition−Percent Stimulation±SEM (F. oxysporum; 0.3 μM, 72 hrs): −2.8 ± 1.9%
- Percent inhibition−Percent Stimulation±SEM (F. oxysporum; 3.0 μM, 48 hrs): −42.3 ± 4.5%
- Percent inhibition−Percent Stimulation±SEM (F. oxysporum; 3.0 μM, 72 hrs): −14.0 ± 2.1%
- Percent inhibition−Percent Stimulation±SEM (F. oxysporum; 30 μM, 48 hrs): −25.8 ± 2.6%
- Percent inhibition−Percent Stimulation±SEM (F. oxysporum; 30 μM, 72 hrs): −9.1 ± 3.0%
- Percent inhibition−Percent Stimulation±SEM (C. gloeosporioides; 0.3 μM, 48 hrs): −100.0 ± 1.5%
- Percent inhibition−Percent Stimulation±SEM (C. gloeosporioides; 0.3 μM, 72 hrs): −99.0 ± 0.6%
- Percent inhibition−Percent Stimulation±SEM (C. gloeosporioides; 3.0 μM, 48 hrs): −98.9 ± 0.5%
- Percent inhibition−Percent Stimulation±SEM (C. gloeosporioides; 3.0 μM, 72 hrs): −99.1 ± 0.4%
- Percent inhibition−Percent Stimulation±SEM (C. gloeosporioides; 30 μM, 48 hrs): −96.0 ± 1.4%
- Percent inhibition−Percent Stimulation±SEM (C. gloeosporioides; 30 μM, 72 hrs): −99.7 ± 0.4%

Compound: CC1(C(=O)Nc2ccc(O)c(Cl)c2Cl)CCCCC1 [Fenhexamid]
- inhibition at 0.3 µM (B. cinerea; 48 h): 82.9 ± 31.5%
- inhibition at 3 µM (B. cinerea; 48 h): 34.2 ± 29.1%
- inhibition at 30 µM (B. cinerea; 48 h): 49.2 ± 32.1%
- inhibition at 0.3 µM (B. cinerea; 72 h): 71.4 ± 24.7%
- inhibition at 3 µM (B. cinerea; 72 h): 42.7 ± 20.6%
- inhibition at 30 µM (B. cinerea; 72 h): 40.9 ± 22.6%
- inhibition at 0.3 µM (C. fragariae; 48 h): -30.2 ± 10%
- inhibition at 3 µM (C. fragariae; 48 h): -13.6 ± 6.3%
- inhibition at 30 µM (C. fragariae; 48 h): 19.9 ± 3.4%
- inhibition at 0.3 µM (C. fragariae; 72 h): -12 ± 6.7%
- inhibition at 3 µM (C. fragariae; 72 h): -9.9 ± 4.3%
- inhibition at 30 µM (C. fragariae; 72 h): 19.5 ± 5.4%
- inhibition at 0.3 µM (C. acutatum; 48 h): -21.6 ± 6.7%
- inhibition at 3 µM (C. acutatum; 48 h): -6.5 ± 4.9%
- inhibition at 30 µM (C. acutatum; 48 h): 13.8 ± 5.3%
- inhibition at 0.3 µM (C. acutatum; 72 h): -20.4 ± 5.6%
- inhibition at 3 µM (C. acutatum; 72 h): -21.8 ± 4.3%
- inhibition at 30 µM (C. acutatum; 72 h): 1.5 ± 6.7%
- inhibition at 0.3 µM (F. oxysporum; 48 h): 3 ± 4.4%
- inhibition at 3 µM (F. oxysporum; 48 h): 15.3 ± 1.7%
- inhibition at 30 µM (F. oxysporum; 48 h): 28.5 ± 1.3%
- inhibition at 0.3 µM (F. oxysporum; 72 h): -0.1 ± 2.8%
- inhibition at 3 µM (F. oxysporum; 72 h): 3.7 ± 2.6%
- inhibition at 30 µM (F. oxysporum; 72 h): 21.2 ± 2.1%
- inhibition at 0.3 µM (C. gloeosporioides; 48 h): -21.6 ± 9%
- inhibition at 3 µM (C. gloeosporioides; 48 h): -32.5 ± 6.4%
- inhibition at 30 µM (C. gloeosporioides; 48 h): -0.3 ± 3%
- inhibition at 0.3 µM (C. gloeosporioides; 72 h): -11.3 ± 5.5%
- inhibition at 3 µM (C. gloeosporioides; 72 h): -16 ± 2%
- inhibition at 30 µM (C. gloeosporioides; 72 h): 6.5 ± 4.2%
